Key:
Type in all cases: cell-based
[1] = target: Kv7.1/KCNE1 (Homo sapiens, UniProt P15382+P51787); experiment: Two electrode voltage clamp of Kv7.1/KCNE1 currents in Xenopus oocytes
Experimental: (§1) Template cDNAs (wildtype or mutant human Kv7.1 in pSGEM, wildtype human KCNE1 in pSP64) were linearized with a suitable restriction enzyme (Nhe I/pSGEM, Eco RI/pSP64). cRNA was synthesized from 1 μg linearized cDNA by in vitro transcription (mMessage mMachine T7 or SP6 kit, Ambion, Life Technologies Darmstadt, Germany). cRNA concentrations were determined by photometry (Nanodrop, Peqlab, Erlangen, Germany) and cRNA quality was checked by agarose gel electrophoresis.
Oocytes were commercially obtained from EcoCyte Bioscience (Castrop-Rauxel, Germany). Injection of stage 4 or 5 oocytes was performed using a nanoliter injector 2000 (WPI, Berlin, Germany). For standard pharmacological measurements, each oocyte was injected with 5 ng Kv7.1 cRNA alone or with 1 ng KCNE1 cRNA. To investigate the influence of KCNE1 on AC-1 sensitivity of Kv7.1 tetramers, 5 ng Kv7.1 cRNA was injected with different amounts of KCNE1 cRNA (0 ng, 0.005 ng, 0.05 ng, 0.5 ng and 5 ng). Injected oocytes were maintained in an incubator at 17 °C for 4–5 days in standard Barth solution (EcoCyte Bioscience, Castrop-Rauxel, Germany) supplemented with 90 μg ml^−1 theophylline, 63 μg ml^−1 penicillin, 40 μg ml^−1 streptomycin, and 100 μg ml^−1 gentamycin until used for two electrode voltage clamp (TEVC) measurements.
TEVC measurements were performed using a TurboTec-10CD amplifier (npi Electronic, Tamm, Germany) and an ITC-16 AD/DA-interface (Instrutech Corporation, Port Washington, New York, USA). Pulse and PulseFit software (HEKA, Lambrecht/Pfalz, Germany) was used for data acquisition and analysis. During TEVC recordings, oocytes were constantly perfused with control solution (ND96, containing in mM: 96 NaCl, 4 KCl, 1.8 CaCl2, 1 MgCl2, 5 mM HEPES, pH 7.6 supplemented 0.1–0.3% DMSO). AC solutions were freshly prepared in ND96 from a 10 mM DMSO stock solution. Glass capillaries were pulled to a fine point to produce current and voltage electrodes that were back-filled with 3 M KCl. When filled with this solution, electrode resistances ranged from 0.5–1.5 MΩ. Different voltage pulse protocols were used as follows: (1) To study the inhibitory effect of different AC derivatives, Kv7.1/KCNE1 currents were elicited by repetitive 7 s pulses to +40 mV applied every 30 s from a holding potential of −80 mV. (2) To analyse the voltage dependence of channel activation, currents were elicited by 10 s pulses to test voltages between −100 and +60 mV, applied in 20 mV increments from a holding potential of −80 mV. Tail currents were recorded at −120 mV. For control we always expressed KCNE1 alone along mutant channels and mutant currents were only taken into account when it reached at least 2.5- to 3-fold the size of the background Xenopus-Kv7.1/hKCNE1 currents.
Electrophysiological data were analysed using PulseFit software (HEKA, Lambrecht/Pfalz, Germany) and GraphPad Prism (GraphPad Software, Inc., La Jolla, California, USA). Channel inhibition was determined as reduction of whole cell current amplitude at the end of a 7 s test pulse to +40 mV. The concentration of compound that caused half-maximal inhibition (IC50) were determined using the Hill equation: Idrug/Imax=1/(1+[C/IC50]^H), where Idrug is the current amplitude in the presence of the drug, Imax is the current amplitude before drug application, C is the drug concentration and H is the Hill coefficient.

[2] = target: V241A/KCNE1 (Homo sapiens, UniProt P15382+P51787, V241A); experiment: TEVC, mutant channel V241A/KCNE1 in oocytes; settings: Kv7.1 V241A mutant with KCNE1
Description: (§2) Ala scanning was previously used to identify specific residues that form the putative binding sites for chromanol and benzodiazepine derivatives that are considered to be classical pore blockers of Kv7.1 channels. Here we applied Ala scanning to multiple segments of the Kv7.1 α-subunit to identify potential AC-1 interaction sites in the extended pore region of Kv7.1/KCNE1 channels (Fig. 3a). In cases where mutation to Ala precluded channel function, alternative residues were introduced. […] Instead, most of these crucial residues cluster around a ‘window' formed uniquely in the preopen–closed state model of the Kv7.1/KCNE1 channel[33] (Fig. 3c, magenta residues). […]
as §1, with “electrophoresis. […]” for “electrophoresis.”
(§3) TEVC measurements were performed using a TurboTec-10CD amplifier (npi Electronic, Tamm, Germany) and an ITC-16 AD/DA-interface (Instrutech Corporation, Port Washington, New York, USA). […] Tail currents were recorded at −120 mV. […]

[3] = target: I274A/KCNE1 (Homo sapiens, UniProt P15382+P51787, I274A); experiment: TEVC, mutant channel I274A/KCNE1 in oocytes; settings: Kv7.1 I274A mutant with KCNE1
Description: as §2
as §1, with “electrophoresis. […]” for “electrophoresis.”
as §3

[4] = target: T312S/KCNE1 (Homo sapiens, UniProt P15382+P51787, T312S); experiment: TEVC, mutant channel T312S/KCNE1 in oocytes; settings: Kv7.1 T312S mutant with KCNE1
Description: as §2
as §1, with “electrophoresis. […]” for “electrophoresis.”
as §3

[5] = target: I337V/KCNE1 (Homo sapiens, UniProt P15382+P51787, I337V); experiment: TEVC, mutant channel I337V/KCNE1 in oocytes; settings: Kv7.1 I337V mutant with KCNE1
Description: as §2
as §1, with “electrophoresis. […]” for “electrophoresis.”
as §3

[6] = tested on: Kv7.1/KCNE2–5; experiment: TEVC, Kv7.1 co-expressed with other KCNE isoforms; settings: 1 μM
[7] = tested on: T1, Kv7.2; experiment: TEVC, Kv7.2 channels; settings: 1 μM
T1 construct: expressed in transfected cells

CC(C)(Oc1ccc(Cl)cc1)C(=O)NC1C2CC3CC1CC(NS(C)(=O)=O)(C3)C2 (stereo not drawn) [AC-1, 2-(4-chlorophenoxy)-2-methyl-N-[5-[(methylsulfonyl)amino]tricyclo[3.3.1.13,7]dec-2-yl]-propanamide]
effect on channel activation kinetics ([1]; 300 nM): strong deceleration of channel activation | effect on rate of current deactivation ([1]; 300 nM, activated by 5 s pulse to +40 mV): does not alter the rate of current deactivation | effect on rate of current deactivation ([1]; 300 nM, activated by 5 s pulse to −20 mV): decreases the rate of current deactivation | inhibition at 10 µM ([1]; 10 µM, percent change in current amplitude at end of pulse to +40 mV): 89.2 ± 1.2% | Hill-coeff. ([1]; concentration-response at +40 mV, oocytes): 1.2 ± 0.1 | maximum reduction of Kv7.1/KCNE1 channel currents ([1]; even at concentrations ∼100-fold greater than the IC50): about 90% | higher voltages required to elicit measurable channel opening (depolarizing shift of activation) ([1]; in the presence of AC-1 (300 nM)): 20–40 mV | slope m of linear fit of τinhibition against AC-1 concentration ([1]; onset of inhibition, single exponential, y=m × log[AC−1]+b): −1.02±0.19 | IC50 ([1]; wt, currents at end of 7 s pulse to +40 mV, holding −80 mV, oocytes, read-out: IC50 for inhibition of Kv7.1/KCNE1 channel currents): 78.4 nM | IC50 [2]: 234 ± 15 nM | IC50 [3]: 327 ± 83 nM | IC50 [4]: > 50000 nM | IC50 [5]: 6000 ± 1600 nM | sensitivity of Kv7.1/KCNE2-5 currents [6]: insensitive | effect on Kv7.2 [7]: does not affect
